Experimental data taken from ChEMBL document CHEMBL1149295, “A combined QM/MM approach to protein--ligand interactions: polarization effects of the HIV-1 protease on selected high affinity inhibitors” (J Med Chem, 2004).

Test: Inhibition of HIV1 protease
Design: species or system Human immunodeficiency virus 1

SMILES	Ki [nM]
Nc1cccc(CN2C(=O)N(Cc3cccc(N)c3)[C@H](Cc3ccccc3)[C@H](O)[C@@H](O)[C@H]2Cc2ccccc2)c1 [MOZENAVIR]	0.41
Cc1c(O)cccc1C(=O)N[C@@H](CSc1ccccc1)[C@H](O)CN1C[C@H]2CCCC[C@H]2C[C@H]1C(=O)NC(C)(C)C [NELFINAVIR]	0.28
CCC[C@@]1(CCc2ccccc2)CC(O)=C([C@H](CC)c2cccc(NS(=O)(=O)c3ccc(C(F)(F)F)cn3)c2)C(=O)O1 [TIPRANAVIR]	0.008
